# Data: PubChem BioAssay (NCI)
#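 Cultured in 96-well plates, cells were exposed to test compound for 48 hours across five concentrations. The concentration for 50% growth inhibition is given as GI50. At the TGI there is no net growth.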
# Assays:
# Test in all cases: inhibition of tumour cell growth, NCI panel, 48 h
# HOP-92 NSCLC = tested on: HOP-92 NSCLC
# IGROV1 ovarian = tested on: IGROV1 ovarian
# LOX IMVI melanoma = tested on: LOX IMVI melanoma
# MDA-MB-231 breast = tested on: MDA-MB-231 breast
# NCI-H226 lung = tested on: NCI-H226 lung
# PC-3 prostate = tested on: PC-3 prostate
# SF-268 CNS = tested on: SF-268 CNS
# UACC-62 melanoma = tested on: UACC-62 melanoma
# DLD-1 colon = tested on: DLD-1 colon
# M19-MEL melanoma = tested on: M19-MEL melanoma
SMILES,GI50 (HOP-92 NSCLC) [µM],TGI (HOP-92 NSCLC) [µM],GI50 (IGROV1 ovarian) [µM],TGI (IGROV1 ovarian) [µM],GI50 (LOX IMVI melanoma) [µM],TGI (LOX IMVI melanoma) [µM],GI50 (MDA-MB-231 breast) [µM],TGI (MDA-MB-231 breast) [µM],GI50 (NCI-H226 lung) [µM],TGI (NCI-H226 lung) [µM],GI50 (PC-3 prostate) [µM],TGI (PC-3 prostate) [µM],GI50 (SF-268 CNS) [µM],TGI (SF-268 CNS) [µM],GI50 (UACC-62 melanoma) [µM],TGI (UACC-62 melanoma) [µM],TGI (DLD-1 colon) [µM],TGI (M19-MEL melanoma) [µM]
O=C(NC1CCCCC1)NS(=O)(=O)c1ccc(N2N=C3c4ccccc4CC3C2c2ccc(Cl)cc2)cc1 (stereo unspecified),10.8,31.5,5.98,25.5,10.3,21.9,12.8,31.2,19.8,49.1,4.05,18.8,6.78,34.9,14.9,32.7,,
c1ccc(-c2n(Cc3ccc4ccccc4n3)cc[n+]2Cc2ccc3ccccc3c2)cc1,0.175,1.46,0.783,2.43,0.955,2.31,1.16,3.32,1.3,7.33,1.31,5.51,1.91,5.5,0.631,2.06,,
COc1ccc(C(c2cc(OC)c(OC)c(OC)c2)n2cncn2)cc1O (stereo unspecified),9.69,> 100,0.959,> 100,0.523,> 100,1.5,> 100,1.43,> 100,0.431,> 100,0.649,> 100,0.55,> 100,,
CCCOc1nc(N)c2cnn(C3CCCCO3)c2n1 (stereo unspecified),,> 100,,> 100,,,,,,> 100,,,,> 100,,> 100,> 100,> 100
C[C@@H]1CC[C@H]2C(C)(C)[C@H]3C[C@@]12CC[C@@]3(C)O,,> 100,,> 100,,> 100,,> 100,,> 100,,> 100,,> 100,,> 100,,
NC(=S)N/N=C\c1nccc2c(C(F)(F)F)cccc12,0.226,1.35,0.365,14.8,0.277,10.8,0.281,17.6,0.259,2.39,0.351,15.2,0.27,21.6,0.283,1.15,,
CC[C@@H](c1ccc(O)c(O)c1)[C@@H](CC)c1ccc(O)c(O)c1,2.02,6.09,9.57,85.5,2.85,9.91,12,29.1,21.1,44,12.4,28.9,17.9,37.5,10.4,23.4,,
CC#Cc1ccc(-c2ccccc2)s1,,> 100,,> 100,,> 100,,> 100,,> 100,,> 100,,> 100,,> 100,,
O=c1[nH]c(-c2ccccc2)nc2cc(Cl)ccc12,,,,> 100,,,,,,> 100,,,,,,> 100,> 100,> 100
CN(C)C(=S)/N=c1\ssc(=S)n1C1CCCCC1,,96.6,,> 100,,,,,,> 100,,,,> 100,,34.2,58.2,> 100
COC(=O)[C@]12CC[C@@H](C)[C@H](C)[C@@H]1C1=CC[C@@H]3[C@@]4(C)C[C@@H](O)[C@H](O)[C@@](C)(CO)[C@@H]4[C@H](O)C[C@@]3(C)[C@]1(C)CC2,12.9,27.9,12.4,29.4,14,28,13,29.8,17.8,45,3.63,15.6,12.6,27.5,10.1,23.6,,
COC(=O)c1cc2oc(/C=C3/SC(=S)N(NC(C)=O)C3=O)cc2n1C,19.6,44.5,23.3,> 100,11.1,27.9,21.5,53.2,21.5,51.7,25.6,68.4,28.4,> 100,14.7,35,,
COc1cc(-c2nc3sccn3c2-c2ccnc(NCCNS(=O)(=O)c3ccc(F)cc3)n2)ccc1F,2.49,> 100,1.69,> 100,1.65,> 100,2.35,> 100,1.95,6.05,0.946,> 100,2.78,> 100,0.688,2.55,,
c1ccc(Nc2ncc(-c3ccccc3)o2)cc1,> 25,> 25,> 22,> 25,22.6,> 25,> 25,> 25,> 25,> 25,> 23.2,> 25,> 25,> 25,> 25,> 25,,
CC(C)[C@@H]1NC(=O)[C@]2(C)CSC(=N2)c2ccnc(c2)CNC(=O)C[C@@H](/C=C/CCS)OC1=O,0.363,2.81,0.159,2.43,0.208,0.588,0.472,> 100,0.458,12.4,0.0669,> 100,0.421,> 100,0.0746,0.552,,
Cc1nnc2ccnn2c1C,> 100,> 100,> 100,> 100,> 100,> 100,> 100,> 100,> 100,> 100,> 100,> 100,> 100,> 100,> 100,> 100,,
